Structures are written as SMILES.

This passage reports ED50 and IC50 results from US5464838A, “Aminocarboxylic acid derivatives having antiallergic/antiasthmatic effect and a process for their preparation” (Asta Medica Aktiengesellschaft, priority 1992, dated 1995).

The subject of assay [1] is allergically induced bronchospasm. The assay can be described thus: allergically induced bronchospasm in the guinea pig (modified Konzett-Rossler bronchospasmolysis). The assay is classed as in vivo. The note with it: Cavia porcellus, iv, 0.25 h, test substance intravenously, ovalbumin-triggered bronchial constriction 15 minutes later, read-out: inhibitory effect (ID50) in allergically induced bronchospasm. The source says:
The compounds of the invention are characterized by good antiallergic and antiasthmatic effect.
The test model used to determine these values was a modification of the bronchospasmolysis experiment described by Konzett and Rossler (1).
The animals were narcoticized with urethane (1.5 g/kg i.p.). Trachea and v. jugularis were exposed by means of a skin incision. A tracheal cannula (Our own construction) was fitted to permit the intravenous application of propanolol, ovalbumin and a test substances, and which also permitted artificial respiration (Starling Pump, Braun Melsungen) and measurement of the intratracheal pressure (pressure uptake: Venous Pressure Transducer, Statham, type W 101 connected to a bridge amplifier, Hellige and Multicorder 6-channel ink plotter, Watanabe, type: WA 621-1). The entire preparation was completed after about 15 minutes. During the subsequent experiment the animals were ventilated with 40 breaths per minute and a volume of about 1 ml room air/100 g body weight. The intratracheal pressure was adjusted by this means to 10-15 cm water column. After a habituation phase of about 30 minutes, the test substances were administered intravenously. Propanolol was administered 10 minutes later. […] The resultant increase in intratracheal pressure was recorded on the plotter for at least 15 minutes.

The subject of assay [2] is histamine-precontracted trachea. The assay can be described thus: histamine-precontracted trachea model (after Foster).

For `CNCCC(CCC(=O)O)n1nc(Cc2ccc(Cl)cc2)c2ccccc2c1=O` (stereo not shown) [Example 3, 4-(4-chlorobenzyl)-2-(5-methylamino-1-carboxy-3-pentyl)1(2H) -phthalazinone], the ED50 in assay [1] was determined as 9.9 µg/kg. In assay [2], it took 3.86 µM to reach half-maximal inhibition (IC50).
Regarding `CNCCCC(CC(=O)O)n1nc(Cc2ccc(Cl)cc2)c2ccccc2c1=O` (stereo not shown) [Example 6, 4-(4-chlorobenzyl)-2-[5-methylamino-1-carboxy-t-2-pentyl]-1(2H) -phthalazinone], the ED50 in assay [1] was determined as 0.8 µg/kg. In addition, the IC50 (commonly the concentration that gives 50% inhibition) in assay [2] was determined as 35.5 µM.
